These compounds were tested against T1, human glucocorticoid receptor (GR) complex (Homo sapiens, UniProt P04150) (assay: Glucocorticoid receptor competitive binding assay (fluorescence polarization)). Settings: competition with TAMRA-labeled dexamethasone, read-out: potent activity (IC50) in the GR binding assay.
T1 construct: made in house; host or cells: insect expression system (baculovirus lysate)
T1 sequence (P04150 1-777): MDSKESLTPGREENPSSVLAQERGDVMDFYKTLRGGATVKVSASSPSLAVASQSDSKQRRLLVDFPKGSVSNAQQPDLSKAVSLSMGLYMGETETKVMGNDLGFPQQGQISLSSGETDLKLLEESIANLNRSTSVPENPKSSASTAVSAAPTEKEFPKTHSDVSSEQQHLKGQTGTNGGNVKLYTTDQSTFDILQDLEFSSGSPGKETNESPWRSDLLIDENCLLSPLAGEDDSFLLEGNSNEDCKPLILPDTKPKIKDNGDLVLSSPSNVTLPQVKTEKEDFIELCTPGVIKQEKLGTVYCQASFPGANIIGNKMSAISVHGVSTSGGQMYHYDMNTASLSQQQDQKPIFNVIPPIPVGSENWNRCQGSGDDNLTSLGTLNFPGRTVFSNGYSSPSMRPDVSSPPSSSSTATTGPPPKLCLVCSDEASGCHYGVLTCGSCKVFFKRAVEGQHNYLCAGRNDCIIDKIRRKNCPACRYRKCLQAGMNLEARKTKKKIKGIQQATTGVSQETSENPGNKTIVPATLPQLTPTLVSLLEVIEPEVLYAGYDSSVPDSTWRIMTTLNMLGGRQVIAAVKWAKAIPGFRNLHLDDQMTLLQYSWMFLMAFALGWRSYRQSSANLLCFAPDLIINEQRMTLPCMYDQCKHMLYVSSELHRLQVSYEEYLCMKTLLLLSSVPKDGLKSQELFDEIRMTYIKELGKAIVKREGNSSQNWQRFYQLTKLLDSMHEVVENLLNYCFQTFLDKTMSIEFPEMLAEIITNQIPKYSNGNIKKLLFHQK
Description: Compounds of the invention were evaluated for binding to the steroid receptor by a fluorescence polarization competitive binding assay. Detailed descriptions for preparation of recombinant glucocorticoid receptor (GR) complex used in the assay is described in U.S. Patent Application Publication No. US 2003/0017503, filed May 20, 2002, and incorporated herein by reference in its entirety. Preparation of the tetramethylrhodamine (TAMRA)-labeled dexamethasone probe was accomplished using a standard literature procedure (M. Pons et al., J. Steroid Biochem., 1985, 22, pp. 267-273).
The affinity of the probe for the steroid receptor was then determined in a titration experiment. The fluorescence polarization value of the probe in assay buffer was measured on an SLM-8100 fluorometer using the excitation and emission maximum values described above. Aliquots of expression vector lysate were added and fluorescence polarization was measured after each addition until no further change in polarization value was observed. Non-linear least squares regression analysis was used to calculate the dissociation constant of the probe from the polarization values obtained for lysate binding to the probe.
This assay uses fluorescence polarization (FP) to quantitate the ability of test compounds to compete with tetramethylrhodamine (TAMRA)-labeled dexamethasone for binding to a human glucocorticoid receptor (GR) complex prepared from an insect expression system. The assay buffer was: 10 mM TES, 50 mM KCl, 20 mM Na2MoO4.2H2O, 1.5 mM EDTA, 0.04% w/v CHAPS, 10% v/v glycerol, 1 mM dithiothreitol, pH 7.4. Test compounds were dissolved to 1 mM in neat DMSO and then further diluted to 10× assay concentration in assay buffer supplemented with 10% v/v DMSO. Test compounds were serially diluted at 10× assay concentrations in 10% DMSO-containing buffer in 96-well polypropylene plates. Binding reaction mixtures were prepared in 96-well black Dynex microtiter plates by sequential addition of the following assay components to each well: 15 μL of 10× test compound solution, 85 μL of GR-containing baculovirus lysate diluted 1:170 in assay buffer, and 50 μL of 15 nM TAMRA-labeled dexamethasone. Positive controls were reaction mixtures containing no test compound; negative controls (blanks) were reaction mixtures containing 0.7 μM to 2 μM dexamethasone. The binding reactions were incubated for 1 hour at room temperature and then read for fluorescence polarization in the LJL Analyst set to 550 nm excitation and 580 nm emission, with the Rhodamine 561 dichroic mirror installed. IC50 values were determined by iterative non-linear curve fitting of the FP signal data to a 4-parameter logistic equation.

| Compound | IC50 |
| --- | --- |
| CCCN(CC(NS(=O)(=O)c1c(C)cc(C)cc1C)C(F)(F)F)c1ccccc1 (centres unmarked) | ≤ 100 nM |
| CCC(CSc1ccccc1)NS(=O)(=O)c1c(C)cc(C)cc1C (centres unmarked) [2,4,6-Trimethyl-N-(1-phenylsulfanylmethylpropyl)benzenesulfonamide] | ≤ 100 nM |
| Cc1cc(C)c(S(=O)(=O)NC(CN(C)c2ccccc2OC(F)(F)F)C(F)(F)F)c(C)c1 (centres unmarked) [2,4,6-Trimethyl-N-(2,2,2-trifluoro-1-{[methyl-(2-trifluoromethoxyphenyl)amino]methyl}-ethyl)benzenesulfonamide] | ≤ 100 nM |
| Cc1cc(C)c(S(=O)(=O)NC(COc2cccc3c2CCC3=O)C(F)(F)F)c(C)c1 (centres unmarked) [2,4,6-Trimethyl-N-[2,2,2-trifluoro-1-(1-oxoindan-4-yloxymethyl)ethyl]benzenesulfonamide] | ≤ 100 nM |
| Cc1cc(C)c(S(=O)(=O)NC(COc2ccc(F)c(F)c2F)C(F)(F)F)c(C)c1 (centres unmarked) [2,4,6-Trimethyl-N-[2,2,2-trifluoro-1-(2,3,4-trifluorophenoxymethyl)ethyl]benzenesulfonamide] | ≤ 100 nM |
| Cc1cc(C)c(S(=O)(=O)NC(COc2cc(F)c(F)cc2F)C(F)(F)F)c(C)c1 (centres unmarked) [2,4,6-Trimethyl-N-[2,2,2-trifluoro-1-(2,4,5-trifluorophenoxymethyl)ethyl]benzenesulfonamide] | ≤ 100 nM |
| Cc1cc(C)c(S(=O)(=O)NC(COc2ccccc2C(F)(F)F)C(F)(F)F)c(C)c1 (centres unmarked) [2,4,6-Trimethyl-N-[2,2,2-trifluoro-1-(2-trifluoromethylphenoxymethyl)ethyl]benzenesulfonamide] | ≤ 100 nM |
| Cc1cc(C)c(S(=O)(=O)NC(COc2cc(F)cc(C(F)(F)F)c2)C(F)(F)F)c(C)c1 (centres unmarked) [2,4,6-Trimethyl-N-[2,2,2-trifluoro-1-(3-fluoro-5-trifluoromethylphenoxymethyl)ethyl]benzenesulfonamide] | ≤ 100 nM |
| Cc1cc(C)c(S(=O)(=O)NC(COc2cccc(OC(F)(F)F)c2)C(F)(F)F)c(C)c1 (centres unmarked) [2,4,6-Trimethyl-N-[2,2,2-trifluoro-1-(3-trifluoromethoxyphenoxymethyl)ethyl]benzenesulfonamide] | ≤ 100 nM |
| Cc1cc(C)c(S(=O)(=O)NC(COc2cccc(C(F)(F)F)c2)C(F)(F)F)c(C)c1 (centres unmarked) [2,4,6-Trimethyl-N-[2,2,2-trifluoro-1-(3-trifluoromethylphenoxymethyl)ethyl]benzenesulfonamide] | ≤ 100 nM |
| Cc1cc(C)c(S(=O)(=O)NC(COc2ccc(F)cc2C)C(F)(F)F)c(C)c1 (centres unmarked) [2,4,6-Trimethyl-N-[2,2,2-trifluoro-1-(4-fluoro-2-methylphenoxymethyl)ethyl]benzenesulfonamide] | ≤ 100 nM |
| Cc1cc(C)c(S(=O)(=O)NC(COc2cccc3c2CCCC3)C(F)(F)F)c(C)c1 (centres unmarked) [2,4,6-Trimethyl-N-[2,2,2-trifluoro-1-(5,6,7,8-tetrahydronaphthalen-1-yloxymethyl)ethyl]benzenesulfonamide] | ≤ 100 nM |
| Cc1cc(C)c(S(=O)(=O)NC(COc2cccc3c2CCCC3=O)C(F)(F)F)c(C)c1 (centres unmarked) [2,4,6-Trimethyl-N-[2,2,2-trifluoro-1-(5-oxo-5,6,7,8-tetrahydronaphthalen-1-yloxymethyl)ethyl]benzenesulfonamide] | ≤ 100 nM |
| Cc1cc(C)c(S(=O)(=O)NC(COc2ccc3c(c2)CCC3)C(F)(F)F)c(C)c1 (centres unmarked) [2,4,6-Trimethyl-N-[2,2,2-trifluoro-1-(indan-5-yloxymethyl)ethyl]benzenesulfonamide] | ≤ 100 nM |

Next, values leading:

| IC50 | Compound |
| --- | --- |
| ≤ 100 nM | Cc1cc(C)c(S(=O)(=O)NC(CSc2ccccc2OC(F)(F)F)C(F)(F)F)c(C)c1 (centres unmarked) |
| ≤ 100 nM | Cc1cc(C)c(S(=O)(=O)NC(COc2ccc(Cl)cc2)C(F)(F)F)c(C)c1 (centres unmarked) |
| ≤ 100 nM | Cc1cc(C)c(S(=O)(=O)NC(CNc2ccc(Cl)cc2)C(F)(F)F)c(C)c1 (centres unmarked) |
| ≤ 100 nM | Cc1cccc(OCC(NS(=O)(=O)c2c(C)cc(C)cc2C)C(F)(F)F)c1 (centres unmarked) [2,4,6-Trimethyl-N-(2,2,2-trifluoro-1-m-tolyloxymethylethyl)benzenesulfonamide] |
| ≤ 100 nM | Cc1cc(C)c(S(=O)(=O)NC(COc2ccccc2C)C(F)(F)F)c(C)c1 (centres unmarked) [2,4,6-Trimethyl-N-(2,2,2-trifluoro-1-o-tolyloxymethylethyl)benzenesulfonamide] |
| ≤ 100 nM | Cc1ccc(OCC(NS(=O)(=O)c2c(C)cc(C)cc2C)C(F)(F)F)cc1 (centres unmarked) [2,4,6-Trimethyl-N-(2,2,2-trifluoro-1-p-tolyloxymethylethyl)benzenesulfonamide] |
| ≤ 100 nM | Cc1cc(C)c(S(=O)(=O)NC(CNc2ccccc2)C(F)(F)F)c(C)c1 (centres unmarked) [2,4,6-Trimethyl-N-(2,2,2-trifluoro-1-phenylaminomethylethyl)benzenesulfonamide] |
| ≤ 100 nM | Cc1cc(C)c(S(=O)(=O)NC(CSc2ccccc2)C(F)(F)F)c(C)c1 (centres unmarked) [2,4,6-Trimethyl-N-(2,2,2-trifluoro-1-phenylsulfanylmethylethyl)benzenesulfonamide] |
| ≤ 100 nM | Cc1cc(C)c(S(=O)(=O)NC(CSc2ccccc2C(C)C)C(F)(F)F)c(C)c1 (centres unmarked) [2,4,6-Trimethyl-N-[2,2,2-trifluoro-1-(2-isopropylphenylsulfanylmethyl)ethyl]benzenesulfonamide] |
| ≤ 100 nM | COc1ccccc1SCC(NS(=O)(=O)c1c(C)cc(C)cc1C)C(F)(F)F (centres unmarked) [2,4,6-Trimethyl-N-[2,2,2-trifluoro-1-(2-methoxyphenylsulfanylmethyl)ethyl]benzenesulfonamide] |
| ≤ 100 nM | Cc1cc(C)c(S(=O)(=O)NC(COc2cccc(F)c2)C(F)(F)F)c(C)c1 (centres unmarked) [2,4,6-Trimethyl-N-[2,2,2-trifluoro-1-(3-fluorophenoxymethyl)ethyl]benzenesulfonamide] |
| ≤ 100 nM | COc1cccc(SCC(NS(=O)(=O)c2c(C)cc(C)cc2C)C(F)(F)F)c1 (centres unmarked) [2,4,6-Trimethyl-N-[2,2,2-trifluoro-1-(3-methoxyphenylsulfanylmethyl)ethyl]benzenesulfonamide] |
| ≤ 100 nM | Cc1cc(C)c(S(=O)(=O)NC(CSc2cccc(OC(F)(F)F)c2)C(F)(F)F)c(C)c1 (centres unmarked) [2,4,6-Trimethyl-N-[2,2,2-trifluoro-1-(3-trifluoromethoxyphenylsulfanylmethyl)ethyl]benzenesulfonamide] |
| ≤ 100 nM | Cc1cc(C)c(S(=O)(=O)NC(CSc2cccc(C(F)(F)F)c2)C(F)(F)F)c(C)c1 (centres unmarked) [2,4,6-Trimethyl-N-[2,2,2-trifluoro-1-(3-trifluoromethylphenylsulfanylmethyl)ethyl]benzenesulfonamide] |
| ≤ 100 nM | Cc1cc(C)c(S(=O)(=O)NC(CSc2ccc(F)cc2)C(F)(F)F)c(C)c1 (centres unmarked) [2,4,6-Trimethyl-N-[2,2,2-trifluoro-1-(4-fluorophenylsulfanylmethyl)ethyl]benzenesulfonamide] |
| ≤ 100 nM | Cc1cc(C)c(S(=O)(=O)NC(CSc2ccc(C(C)C)cc2)C(F)(F)F)c(C)c1 (centres unmarked) [2,4,6-Trimethyl-N-[2,2,2-trifluoro-1-(4-isopropylphenylsulfanylmethyl)ethyl]benzenesulfonamide] |
| ≤ 100 nM | Cc1cc(C)c(S(=O)(=O)NC(COc2ccc(C(F)(F)F)cc2)C(F)(F)F)c(C)c1 (centres unmarked) [2,4,6-Trimethyl-N-[2,2,2-trifluoro-1-(4-trifluoromethylphenoxymethyl)ethyl]benzenesulfonamide] |
| ≤ 100 nM | Cc1cccc(NCC(NS(=O)(=O)c2c(C)cc(C)cc2C)C(F)(F)F)c1 (centres unmarked) [2,4,6-Trimethyl-N-[2,2,2-trifluoro-1-(m-tolylaminomethyl)ethyl]benzenesulfonamide] |

Source: US20100048950A1 (BOEHRINGER INGELHEIM INTERNATIONAL GMBH, priority 2007, published 2010)
